Measurements published in patent USRE44971E1, “Method for selection of transformed cells” (priority 2006, dated 2014).

Experiments:
[1] = tested on: soybean cells transformed with pMON73691
Method: Mature seeds of soybean [Glycine max (L.) Merrill] cv. A3525 were imbibed, sterilized, and germinated at room temperature as set forth below. Other examples of soybean genotypes that can readily be used include, but are not limited to, Jack, Williams, Bert, Thorne, Granite, Lambert, Chapman, and Kunitz. Briefly, dry seeds (about 770 g) were soaked for 3 min in 2 L of 200 ppm sodium hypochlorite solution made from commercially available Clorox. The solution was drained and the seeds were set side for about 2 h. About 2 L of bean sterilization/germination medium was then added to the seeds. After about 9-10 h, seeds were ready for hand excision of explants. The bean germination medium contained the following in mg/L—NH4NO3: 240, KNO3: 505, CaCl2.2H2O: 176, MgSO4.7H2O: 493, KH2PO4: 27, H3BO3: 1.86, Na2MoO4.2H2O: 0.216, MnSO4.H2O: 5.07, ZnSO4. 7H2O: 2.58, FeSO4.7H2O: 2.502, KI: 0.249, Na2EDTA. 2H2O: 3.348, CuSO4.5H2O: 0.0008, CoCl2.6H2O: 0.0008, B1: 1.34, B3: 0.5, B6: 0.82, Bravo (75% WP; Diamond Shamrock Company, Cleveland, Ohio): 30, Captan (50% WP; Micro Flo Company, Lakeland, Fla.): 30, Cefotaxime: 125, and Sucrose: 25000, pH 5.8).
The binary vectors described above were mobilized into disarmed Agrobacterium tumefaciens strain C58 (ABI). Agrobacterium inoculum for infection was prepared as follows: 250 ml of LB medium (Luria-Bertani; Difco, Detroit, Mich.) containing 50 mg/l kanamycin (Sigma, St. Louis, Mo.) and 75 mg/l spectinomycin (Sigma, St. Louis, Mo.) was inoculated with 0.5 ml of Agrobacterium stock in glycerol (Acros Organics, Geel, Belgium) and was shaken at 200 rpm at 28° C. for approximately 20-22 h until the OD660 reached 0.8 to 1.0. The Agrobacterium broth was then centrifuged for 25 min at 3500 rpm (about 3565 g) at 2-4° C. After removing the supernatant, the Agrobacterium pellet was re-suspended in inoculation medium containing ⅖× of the macro nutrients, 1/10× of the micro nutrients and vitamins of Gamborg's B5 medium, supplemented with 3.9 g/l MES (Sigma, St. Louis, Mo.), and 30 g/l glucose (PhytoTechnology Laboratories, Shawnee Mission, Kans.), pH 5.4. Lipoic acid (Sigma, St. Louis, Mo.) was added to the Agrobacterium suspension to a final concentration of 0.25 mM after the density of the Agrobacterium cell suspension was adjusted to an OD660 of 0.30 to 0.35.
Agrobacterium-infection and co-cultivation of the explants were conducted as follows: about 100 excised explants were dispensed into the lid of a sterile plastic culture vessel PLANTCON (MP Biomedicals, LLC, Irvine, Calif.). Five ml of Agrobacterium inoculum was added to the explants in each PLANTCON lid. The explants were then sonicated for 20 sec in a sonicator (Ultrasonic Multi Cleaner, Model W-113, Honda, Japan). One piece of Whatmann #1 filter paper (Whatman Inc., Clifton, N.J.) cut to the size of the PLANTCON bottom was placed in the bottom part of the PLANTCON. The explants were transferred from the lid onto the filter paper with the Agrobacterium inoculum. The PLANTCON s were then incubated in a Percival incubator at 16 h light (at about 85-90 μE) and 8 h dark photoperiod and at 23° C. for 2 to 4 d for co-cultivation.
After a co-cultivation period of 2-4 days, explants were first cultured on a medium without dicamba (delay medium) for 3-5 d before being transferred to the selection medium with dicamba. Until transfer from delay medium to selection medium, the explants were kept in the same PLANTCON used for co-cultivation, but 10 or 12 ml of the delay medium was added to each PLANTCON. Alternatively, the explants were transferred to new PLANTCONs, each containing one piece of autoclaved felt (Jo-Ann Fabrics & Crafts, Madison, Wis.)) and 30 ml of the delay medium.

[2] = tested on: Wild type Arabidopsis var. Columbia; settings: 1.0 mg/L in the culture medium; FIG. 8
Method: The susceptibility of Arabidopsis to different levels of dicamba was first tested. Wild type Arabidopsis var. Columbia seeds were plated on plant tissue culture medium containing various levels of dicamba. […] Arabidopsis plants were then transformed with the constructs containing DMO polynucleotides using the floral dip method (Clough and Bent, 1998). R1 seeds were plated on the culture medium containing up to 4 mg/L of dicamba.

[3] = tested on: soybean explants inoculated with Agrobacterium harboring pMON73691 (DMO and GFP genes); assay: Selection of pMON73691-inoculated soybean explants with 2,4-D or dicamba in liquid medium, GFP+ buds; type: cell-based; settings: selective agent 0.01 mg/L; 375 explants inoculated; pMON73691
Method: Freshly isolated soybean explants (mature embryo axes without cotyledons) were inoculated with Agrobacterium strain ABI harboring pMON73691 (containing DMO and GFP genes). After 3-d co-culture with Agrobacterium at 23° C. and a photoperiod of 16-h light and 8-h dark, the explants were cultured in liquid delay medium which contained modified woody plant medium supplemented with 5 mg/l BAP, 200 mg/l carbenicillin, 200 mg/l cefotaxime and 100 mg/l ticarcillin. The explants were in the delay medium for 4 days. They were then transferred to liquid selection medium in PLANTCONs. The selection medium was the same as the delay medium except of addition of various levels of 2,4-D (0.01, 0.1, 1.0 or 2.0 mg/L) or 0.01 mg/L dicamba as shown in Table 9 below. Each PLANTCON contained 60 ml of the selection medium and one piece of foam sponge with 5 slits. Twenty-five explants were evenly inserted into the slits. The cultures were maintained at 28° C. and a photoperiod of 16-h light and 8-h dark, and were examined periodically under a […] equipped for detecting GFP expressing tissues.

COc1c(Cl)ccc(Cl)c1C(=O)O [dicamba, 3,6-dichloro-o-anisic acid]
dicamba-tolerant shoots harvested ([1]; 0.01 mg/l in selection medium, from 800 explants, pMON73691): 30
tolerant shoots harvested ([1]; 0.02 mg/l in selection medium, pMON73691): few tolerant shoots were harvested
tolerant shoots obtained ([1]; 0.05 or 0.1 mg/l in selection medium, pMON73691): no tolerant shoots were obtained
tolerant shoots that formed roots on rooting medium and were transferred to soil ([1]; of 30 shoots selected on 0.01 mg/l): Twelve
plants positive for DMO-encoding polynucleotides ([1]; of ten tested, selected on 0.01 mg/l): seven
concentration most efficacious for selecting dicamba-tolerant shoots ([1]; soybean explants, pMON73691): ≤ 0.01 mg/L
susceptibility of wild type Arabidopsis [2]: quite susceptible
# Explants w/GFP + buds/young shoots at 48DAI [3]: 28
